Results reported in US11584745B2, “Aromatic heterocyclic compound, intermediate thereof, preparation method therefor, and pharmaceutical composition and use thereof” (SHANGHAI YINGLI PHARMACEUTICAL CO., LTD, priority 2018, dated 2023).

Target: ALK5 (Homo sapiens (Human), UniProt P36897)
Test: Evaluation experiment of ALK5 enzyme activity inhibition IC50 (ADP-Glo kinase assay)
Assay type: biochemical
Details: 25 nM ALK5, 0.1 mg/mL peptide TGFbR1, 7 μM ATP, 30° C. 1 hour, ADP-Glo luminescence
Description: 1×kinase buffer preparation: 40 mM Tris (pH 7.5), 20 mM MgCl2, 0.10% BSA, 1 mM DTT.
Compound preparation: The final detection concentration of the compound was 10 μM, which was configurated to a 100-fold concentration, i.e., 1 mM. In the second well of the 384-well plate, 100 μL of 100-fold compound was added, and 60 μL of 100% DMSO was added to other wells. 30 μL of compound from the second well was taken and added to the third well, and a 3-fold dilution was made in sequence, a total of 10 concentrations were diluted. 50 nL of compound was transferred to the reaction plate with echo.
Kinase reaction: Kinase was added to 1×kinase buffer to form a 2×enzyme solution. […] The polypeptide TGFbR1 (purchased from Signal Chem, catalog number T36-58) and ATP were added to 1×kinase buffer to form a 2×substrate solution. The final concentration of the substrate solution was 0.1 mg/mL peptide TGFbR1, 7 μM ATP. 2.5 μL of 2×enzyme solution was added to the 384-well reaction plate (there was already 50 nL of 100% DMSO dissolved compound), and 1×kinase buffer was added to the negative control well. The plate was incubated at room temperature for 10 minutes. 2.5 μL of 2× substrate solution was added to the 384-well reaction plate. The 384-well plate was covered and incubated at 30° C. for 1 hour. ADP-Glo reagent (purchased from Promege, catalog number v9102) was equilibrated to room temperature. 5 μL of ADP-Glo reagent was transferred to the reaction well of the 384-well plate to stop the reaction.
Detection of reaction results: 10 μL of kinase detection reagent was transferred to each reaction well, the plate was shaken for 1 minute and placed at room temperature for 30 minutes. The sample luminescence value was read at Synegy.
Curve fitting: The data of the luminescence reading from the Synegy program were copied. The value of the luminescence reading was converted into the percentage of inhibition by a formula (inhibition percent=(max-sample RLU)/(max-min)*100, wherein “min” was a […] reading of the control sample without enzyme; “max” was the […] reading of sample with DMSO as a control). The data were imported into MS Excel and GraphPad Prism was used for curve fitting. The ICso value was calculated.

Sequence of ALK5 (P36897 34-503): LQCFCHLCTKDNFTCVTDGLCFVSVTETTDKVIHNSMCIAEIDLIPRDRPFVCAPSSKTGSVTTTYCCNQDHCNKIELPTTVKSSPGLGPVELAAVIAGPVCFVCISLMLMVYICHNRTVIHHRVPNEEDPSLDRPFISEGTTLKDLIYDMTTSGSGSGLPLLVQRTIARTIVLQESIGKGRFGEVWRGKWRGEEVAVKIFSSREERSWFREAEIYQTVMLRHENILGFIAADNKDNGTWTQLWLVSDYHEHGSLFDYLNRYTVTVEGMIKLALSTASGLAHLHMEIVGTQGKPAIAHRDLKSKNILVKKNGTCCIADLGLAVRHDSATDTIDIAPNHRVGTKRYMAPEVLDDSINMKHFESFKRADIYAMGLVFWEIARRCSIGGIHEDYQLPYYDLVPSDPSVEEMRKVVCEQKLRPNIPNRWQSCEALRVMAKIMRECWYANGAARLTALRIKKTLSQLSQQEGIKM

Structure (SMILES) | IC50 [nM]
Cc1cccc(-c2cccn2-c2ccc3ncc(C(N)=O)n3c2)n1 [Compound 1] | 13
Cc1cccc(-n2cccc2-c2ccc3ncc(C(N)=O)n3c2)n1 [Compound 4] | 19
Cc1cccc(-n2cccc2-c2ccc3ncc(C(=O)N(C)C)n3c2)n1 [Compound 5] | 105
Cc1cccc(-c2nccn2-c2ccc3ncc(C(N)=O)n3c2)n1 [Compound 8] | 7
Cc1cccc(-c2cncn2-c2ccc3ncc(C(N)=O)n3c2)n1 [Compound 9] | 136
Cc1cccc(-c2cnsc2-c2ccc3nccn3c2)n1 [Compound 16] | 165
Cc1cccc(-c2ccsc2-c2ccc3ncc(C(N)=O)n3c2)n1 [Compound 17] | 5.2
Cc1cccc(-c2cc(C)sc2-c2ccc3ncc(C(N)=O)n3c2)n1 [Compound 18] | 9.4
Cc1cccc(-c2cccnc2-c2ccc3ncc(C(N)=O)n3c2)n1 [Compound 19] | 75
CNC(=O)c1cnc2ccc(-c3ncccc3-c3cccc(C)n3)cn12 [Compound 20] | 76
Cc1csc(-c2ncccc2-c2ccc3ncc(C(N)=O)n3c2)n1 [Compound 23] | 21
Cc1cccc(-c2cc3ccccc3n2-c2ccc3ncc(C(N)=O)n3c2)n1 [Compound 25] | 14
